Reference: patent US20230310427A1, “NEW THERAPEUTIC USE OF RILPIVIRINE” (UNIVERSITY OF SOUTH AUSTRALIA, priority 2020, published 2023)

Experiments:
[1] = system: Miapaca-2 (pancreatic) cancer cell lines; assay: Cell cycle analysis (flow cytometry); type: cell-based; conditions: 48 hours; data not shown
Procedure: (§1) The effect of Rilpivirine on cell cycle distribution in different cancer cell lines was evaluated by flow cytometric analysis. Briefly, cells were seeded in 6-well plates at a density of 6 × 10^4 cells/well. All plates were incubated overnight at 37° C. in a 5% CO2 incubator. Following the incubation, the test compounds (Rilpivirine (Ril) and comparators, Alisertib (Ali; a known Aurora A inhibitor) and Etravirine (Etra; 4-[[6-amino-5-bromo-2-[(4-cyanophenyl)amino]-4-pyrimidinyl]oxy]-3,5-dimethylbenzonitrile - a structurally similar NNRTI drug compound sold under the brand name Intelence® (Janssen Therapeutics)) were added to individual wells and the plates were incubated at same condition for 24 h, 48 h or 72 h. Subsequently, the medium was removed from the wells and transferred into fluorescence-activated cell sorting (FACS) tubes. The adherent cells remaining were trypsinised, re-suspended in media and transferred into the FACS tubes. Cells were centrifuged, fixed with cold 70% ethanol for 15 min and pelleted. The pelleted cells were then re-suspended in 200 µL propidium iodide (PI) solution (50 µg/mL propidium iodide, 0.1 mg/mL ribonuclease A, 0.1% sodium citrate, 0.1% triton X-100) and incubated in the dark for 1.5 h at room temperature. Following the incubation, 200 µL PBS was added. Samples were assessed using a flow cytometer (Cytoflex; Beckman Coulter Inc, Brea, CA, United States of America) and data were analysed using the Cytexpert software.

K-562 cells = assay: Cell cycle analysis (flow cytometry); type: cell-based; conditions: various concentrations, 24 hour
Procedure: as §1

OVCAR-5 cells = assay: Cell cycle analysis (flow cytometry); type: cell-based; conditions: 72 hour, 5 µM, 10 µM and 20 µM; p53 WT
Procedure: as §1

HL-60 cells = assay: Cell cycle analysis (flow cytometry); type: cell-based
Procedure: as §1

NB4 cells = assay: Cell cycle analysis (flow cytometry); type: cell-based; conditions: various concentrations, 24 hour
Procedure: as §1

T47D cells = assay: Cell cycle analysis (flow cytometry); type: cell-based; conditions: 48-hour treatment; p53 mutant
Procedure: as §1

Jurkat cells = assay: Cell cycle analysis (flow cytometry); type: cell-based; conditions: various concentrations, 24 hour
Procedure: as §1

SKOV-3 cells = assay: Cell cycle analysis (flow cytometry); type: cell-based; conditions: 72 hours, 5 µM, 10 µM and 20 µM; p53 mutant; data not shown
Procedure: as §1

U-937 cells = assay: Cell cycle analysis (flow cytometry); type: cell-based; conditions: various concentrations, 24 hour
Procedure: as §1

PC3 cells = assay: Cell cycle analysis (flow cytometry); type: cell-based; conditions: 48 hour treatment; p53 mutant
Procedure: as §1

[2] = system: p53 wild-type (WT) A2780 cells; assay: Cell cycle analysis (flow cytometry); type: cell-based; conditions: 24, 48 and 72 hour
Procedure: as §1

LYN = molecular target: T1, LYN (Homo sapiens, UniProt P07948); assay: Kinase assay; type: biochemical; conditions: expanded panel, read-out: percent inhibition
T1 construct: purchased Promega (ADP-Glo kits) or Reaction Biology Corporation / Eurofins discovery services (external)
T1 sequence (P07948 whole entry): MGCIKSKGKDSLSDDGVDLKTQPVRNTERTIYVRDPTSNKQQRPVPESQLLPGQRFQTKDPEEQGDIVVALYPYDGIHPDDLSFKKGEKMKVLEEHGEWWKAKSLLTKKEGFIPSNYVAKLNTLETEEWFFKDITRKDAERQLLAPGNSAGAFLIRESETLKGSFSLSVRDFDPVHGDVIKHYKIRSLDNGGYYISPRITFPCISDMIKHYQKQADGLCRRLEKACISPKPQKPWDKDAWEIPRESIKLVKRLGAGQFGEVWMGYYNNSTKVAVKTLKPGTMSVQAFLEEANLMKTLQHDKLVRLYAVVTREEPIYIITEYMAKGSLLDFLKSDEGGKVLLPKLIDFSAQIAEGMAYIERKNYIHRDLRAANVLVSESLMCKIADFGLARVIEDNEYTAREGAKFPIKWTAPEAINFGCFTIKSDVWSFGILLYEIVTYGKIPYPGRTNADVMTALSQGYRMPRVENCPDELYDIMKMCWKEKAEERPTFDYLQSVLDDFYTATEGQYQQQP
Procedure: The ability of compounds to inhibit kinases was measured using ADP-Glo^Tm assay kits (Promega, Madison, WI, United States of America) or externally using radioisotope based assays (Reaction Biology Corporation, Malvern, PA, United States of America and Eurofins discovery services, France). The ADP-Glo assay was performed as reported previously (Basnet SK et al., Mol Pharmacol 88(5):935-948, 2015).The assay plate was read for luminescence using Envision multi-label plate reader (PerkinElmer, Waltham, MA, United States of America). Half-maximal inhibition (IC50) values were determined from a plot of percent residual activity versus concentration of test compounds using GraphPad Prism software. Ki values were calculated from IC50 values using the Cheng-Prusoff equation: Ki= IC50/ [1 + ([ATP]/Km ATP)], where [ATP] is the ATP concentration used for the IC50 determination and Km ATP for each kinase is determined from an individual experiment.

cyclin D1 in A2780 cells = assay: Western blot, cell cycle regulatory proteins; type: cell-based; conditions: 24 hour, increasing amounts
Procedure: (§2) For Western blotting, cells (8×10^5) were seeded in a culture dish with 10 mL medium and incubated overnight at 37° C., 5% CO2. Untreated and compound-treated cells were lysed using phosphate lysis buffer and protease inhibitors. The protein concentration of each sample was determined by Bio-Rad DC™ protein assay (Bio-Rad Laboratories, Hercules, CA, United States of America). The protein was deactivated at 95° C. for 5 min and then resolved on 4-20% polyacrylamide gels by electrophoresis. Proteins were transferred to polyvinylidene difluoride (PDVF) membrane and blocked for 1 h with 10% skimmed milk (SM) in Tris-buffered saline and Tween (TBST). After adding primary antibody, the membranes were incubated overnight on a rocker in a 4° C. cold room. The following day, membranes were washed in TBST (4×20 min), incubated for at least 1 h at room temperature with the appropriate horseradish peroxidase conjugated secondary antibody. Following this, the blots were washed with TBST (4×20 min) again. The blots were then treated with Western blotting detection reagent and the band intensity was determined using a Bio-Rad ChemiDoc™ MP imaging system (Bio-Rad Laboratories). All the antibodies used for protein detection were from Cell Signaling Technology (Danvers, MA, United States of America). The primary and secondary antibodies used were obtained from Cell Signalling Technology (Danvers, MA, United States of America).

[3] = system: phosphorylated retinoblastoma (Rb) protein in A2780 cells; assay: Western blot, cell cycle regulatory proteins; type: cell-based; conditions: 24 hour, increasing amounts
Procedure: as §2

p21 in A2780 cells = assay: Western blot, cell cycle regulatory proteins; type: cell-based; conditions: 24 hour, increasing concentration
Procedure: as §2

p53 in A2780 cells = assay: Western blot, cell cycle regulatory proteins; type: cell-based; conditions: 24 hour, increasing concentration
Procedure: as §2

SMILES: Cc1cc(/C=C/C#N)cc(C)c1Nc1ccnc(Nc2ccc(C#N)cc2)n1 [Rilpivirine, 4-[[4-[4-[(E)-2-cyanoethenyl]-2,6-dimethylanilino]pyrimidin-2-yl]amino]benzonitrile]
- cell cycle arrest [1]: G2/M arrest increased with increasing concentrations of the drug
- cell cycle arrest (K-562 cells): arrests both of these cell lines in the G2/M phase in a dose-dependent manner
- cell cycle arrest (OVCAR-5 cells): arrests the cells in the G1 phase or accumulated in Sub-G1 phase at higher concentrations
- cell cycle arrest (HL-60 cells; 5, 10 and 20 µM for 24 hrs, p53 null): arrested in the G2/M Phase
- numbers of cells in G2/M (HL-60 cells; 24 hour treatment, versus diluent only): approximately doubled
- cell cycle arrest (NB4 cells): arrests NB4 and Jurkat cells in the G2/M phase in a dose-dependent manner
- cell cycle arrest (T47D cells): arrest T47D breast cancer cells in G2/M phase
- cell cycle arrest (Jurkat cells): arrests NB4 and Jurkat cells in the G2/M phase in a dose-dependent manner
- cell cycle arrest (SKOV-3 cells): caused G2/M arrest in a dose-dependent manner
- cell cycle arrest (U-937 cells): arrests both of these cell lines in the G2/M phase in a dose-dependent manner
- cell cycle arrest (PC3 cells): induce G2/M arrest
- cell cycle arrest ([2]; 10 µM): arrests the cells in the G1 phase
- cell cycle distribution ([2]; 20 µM): increased number of cells accumulated in Sub-G1 phase
- inhibition at 1 µM (LYN): 77%
- amount of cyclin D1 (cyclin D1 in A2780 cells): decrease
- amount of phosphorylated Rb protein [3]: decrease
- p21 protein (p21 in A2780 cells): induced its target gene p21
- expression of p53 protein (p53 in A2780 cells): increase in the expression of p53
